Experimental data taken from patent US9758485B2, “Compounds for controlling arthropods” (priority 2013, dated 2017).

Tests used:
[1] = system: Lucilia cuprina; test: Lucilia cuprina test; assay type: in vivo; conditions: application rate 100 ppm; L1 larvae in minced horsemeat; kill after 2 days
Procedure: (§1) Solvent: dimethyl sulphoxide
(§2) To produce an appropriate active ingredient formulation, 10 mg of active ingredient are mixed with 0.5 ml of dimethyl sulphoxide, and the concentrate is diluted with water to the desired concentration.
About 20 L1 larvae of the Australian sheep blowfly (Lucilia cuprina) are transferred into a test vessel containing minced horsemeat and the active ingredient preparation of the desired concentration.
After 2 days, the kill in % is determined. 100% means that all the larvae have been killed; 0% means that none of the larvae have been killed.

[2] = system: Boophilus microplus; test: Boophilus microplus - injection test; assay type: in vivo; conditions: application rate 20 μg/animal; injected into engorged adult female ticks; laying of fertile eggs, after 7 days
Procedure: Boophilus microplus—Injection Test
as §1
To produce an appropriate active ingredient formulation, 10 mg of active ingredient are mixed with 0.5 ml of solvent and the concentrate is diluted with solvent to the desired concentration.
1 μl of the active ingredient solution is injected into the abdomen of 5 engorged adult female cattle ticks (Boophilus microplus). The animals are transferred into dishes and kept in a climate-controlled room.
(§3) Efficacy is assessed after 7 days by laying of fertile eggs. Eggs which are not visibly fertile are stored in a climate-controlled cabinet until the larvae hatch after about 42 days. An efficacy of 100% means that none of the ticks has laid any fertile eggs; 0% means that all the eggs are fertile.

[3] = logP determination by HPLC on a reversed-phase column (C18), EEC Directive 79/831 Annex V.A8; assay type: physicochemical; conditions: for logP^a): HPLC-MS method a), Table I-T3; for log P: HPLC-MS, reversed-phase column (C18); for logP: HPLC, reversed-phase C18, acetonitrile/water with formic acid, 55° C.
[4] = system: Ctenocephalides felis; test: Ctenocephalides felis - in vitro contact tests with adult cat fleas; assay type: in vivo; conditions: application rate 5 μg/cm^2 (=500 g/ha), after 48 h (dead or moribund)
Procedure: Ctenocephalides felis—In Vitro Contact Tests with Adult Cat Fleas
For the coating of the test tubes, 9 mg of active ingredient are first dissolved in 1 ml of acetone p.a. and then diluted to the desired concentration with acetone p.a. 250 μl of the solution are distributed homogeneously on the inner walls and base of a 25 ml test tube by turning and rocking on an orbital shaker (rocking rotation at 30 rpm for 2 h). With 900 ppm active ingredient solution and internal surface area 44.7 cm^2, given homogeneous distribution, an area-based dose of 5 μg/cm^2 is achieved.
After the solvent has evaporated off, the tubes are populated with 5-10 adult cat fleas (Ctenocephalides felis), sealed with a perforated plastic lid and incubated in a horizontal position at room temperature and ambient humidity. After 48 h, efficacy is determined. To this end, the test tubes are stood upright and the fleas are knocked to the base of the tube. Fleas which remain motionless at the base or move in an uncoordinated manner are considered to be dead or moribund.
100% efficacy means that all the fleas were dead or moribund. 0% efficacy means that no fleas were harmed.

[5] = system: Ctenocephalides felis; test: Ctenocephalides felis - oral test; assay type: in vivo; conditions: application rate 100 ppm in citrated cattle blood; adult fleas; kill after 2 days
Procedure: Ctenocephalides felis—Oral Test
as §1
For the purpose of producing an appropriate active ingredient formulation, 10 mg of active ingredient are mixed with 0.5 ml of dimethyl sulphoxide. Dilution with citrated cattle blood gives the desired concentration.
About 20 unfed adult cat fleas (Ctenocephalides felis) are placed into a chamber which is closed at the top and bottom with gauze. A metal cylinder whose bottom end is closed with parafilm is placed onto the chamber. The cylinder contains the blood/active ingredient preparation, which can be imbibed by the fleas through the parafilm membrane.
After 2 days, the kill in % is determined. 100% means that all of the fleas have been killed; 0% means that none of the fleas have been killed.

[6] = system: Musca domestica; test: Musca domestica test; assay type: in vivo; conditions: application rate 100 ppm; adult houseflies; kill after 2 days
Procedure: as §1, §2
Vessels containing a sponge treated with sugar solution and the active ingredient formulation of the desired concentration are populated with 10 adult houseflies (Musca domestica).
After 2 days, the kill in % is determined. 100% means that all of the flies have been killed; 0% means that none of the flies have been killed.

[7] = system: Boophilus microplus Parkhurst strain, SP-resistant; test: Boophilus microplus - dip test; assay type: in vivo; conditions: application rate 100 ppm; dip of engorged adult female ticks; laying of fertile eggs, after 7 days
Procedure: Boophilus microplus—Dip Test
Test animals: cattle ticks (Boophilus microplus) Parkhurst strain, SP-resistant
as §1
10 mg of active ingredient are dissolved in 0.5 ml of dimethyl sulphoxide. For the purpose of producing a suitable formulation, the active ingredient solution is diluted with water to the concentration desired in each case.
This active ingredient formulation is pipetted into tubes. 8-10 adult engorged female cattle ticks (Boophilus microplus) are transferred into a further tube with holes. The tube is immersed into the active ingredient formulation, and all the ticks are completely wetted. After the liquid has run out, the ticks are transferred on filter discs into plastic dishes and stored in a climate-controlled room.
as §3

Row | SMILES | efficacy [1] [%] | efficacy [2] [%] | logP^a) [3] | efficacy [4] [%] | efficacy [5] [%] | efficacy [6] [%] | efficacy [7] [%] | log P [3] | logP [3]
1 | Cc1cc(C(F)(C(F)(F)F)C(F)(F)F)cc(C)c1-n1cc(-c2cncc(C(=O)NC3CC3)c2)cn1 [I-T3-7] | 100 | 100 | 3.4 | 100 | 100 | 80 | – | – | –
2 | Cc1cc(C(F)(C(F)(F)F)C(F)(F)F)cc(C)c1-n1cc(-c2cccc(C(=O)NC3CC3)c2F)cn1 [I-T3-9] | 100 | 100 | 4.3 | 100 | 100 | – | – | – | –
3 | Cc1cc(C(F)(C(F)(F)F)C(F)(F)F)cc(C)c1-n1cc(-c2cc(C(=O)NC3(C#N)CC3)c(Cl)cc2F)cn1 [I-T3-17] | 100 | 100 | 4.4 | 100 | 95 | – | – | – | –
4 | Cc1cc(C(F)(C(F)(F)F)C(F)(F)F)cc(C)c1-n1cc(-c2cccc(C(=O)NC3CC3)c2)cn1 [I-T3-29] | 100 | 100 | 3.3 | 100 | 100 | 100 | – | – | –
5 | Cc1cc(C(F)(C(F)(F)F)C(F)(F)F)cc(C)c1-n1cc(-c2cccc(C(=O)NC3(C#N)CC3)c2)cn1 [I-T3-30] | 100 | 100 | 3.2 | 100 | 100 | 90 | – | – | –
6 | O=C(NC1CC1)c1cc(-c2cnn(-c3ccc(C(F)(C(F)(F)F)C(F)(F)F)cc3Cl)c2)ccc1Cl [I-T3-31] | 100 | 100 | 4.3 | 100 | 100 | 100 | – | – | –
7 | CCc1cc(C(F)(C(F)(F)F)C(F)(F)F)ccc1-n1cc(-c2ccc(Cl)c(C(=O)NC3CC3)c2)cn1 [I-T3-39] | 100 | 100 | 4.6 | – | 100 | – | 100 | – | –
8 | Cc1cc(C(F)(C(F)(F)F)C(F)(F)F)cc(C(F)(F)F)c1-n1cc(-c2ccc(Cl)c(C(=O)NCC(F)(F)F)c2)cn1 [I-T3-84] | 100 | 100 | 4.7 | 100 | 100 | 100 | – | – | –
9 | Cc1cc(C(F)(C(F)(F)F)C(F)(F)F)cc(C(F)(F)F)c1-n1cc(-c2ccc(Cl)c(C(=O)NC3CSC3)c2)cn1 [I-T3-85] | 100 | 100 | 4.7 | 100 | 100 | 100 | – | – | –
10 | N#CC1(NC(=O)c2cc(-c3cnn(-c4c(Cl)cc(OC(F)(F)F)cc4Cl)c3)ccc2Cl)CC1 [I-T3-87] | 100 | 100 | 3.6 | 100 | 100 | 100 | – | – | –
11 | CN(C(=O)c1cc(-c2cnn(-c3c(Cl)cc(C(F)(F)F)cc3Cl)c2)cnc1Cl)C1CC1 [I-T3-99] | 100 | 100 | – | 100 | 100 | 90 | 90 | 3.5 | –
12 | CN(C(=O)c1cc(-c2cnn(-c3c(Cl)cc(C(F)(C(F)(F)F)C(F)(F)F)cc3C(F)(F)F)c2)cnc1Cl)C1CC1 [I-T3-113] | 100 | 100 | – | 100 | 100 | 100 | 100 | 4.0 | –
13 | Cc1cc(C(F)(C(F)(F)F)C(F)(F)F)cc(C)c1-n1cc(-c2cnc(C)c(C(=O)N(C)C3(C#N)CC3)c2)cn1 [I-T3-115] | 100 | 100 | – | 100 | 100 | 100 | 100 | 3.8 | –
14 | Cc1cc(C(F)(C(F)(F)F)C(F)(F)F)cc(C(F)(F)F)c1-n1cc(-c2cnc(C)c(C(=O)N(C)C3CC3)c2)cn1 [I-T3-118] | 100 | 100 | – | 100 | 100 | 100 | 100 | 3.8 | –
15 | Cc1ncc(-c2cnn(-c3c(Cl)cc(C(F)(F)F)cc3Cl)c2)cc1C(=O)NC1CC1 [I-T3-127] | 90 | 100 | – | 100 | 100 | – | – | 2.5 | –
16 | Cc1ncc(-c2cnn(-c3c(Cl)cc(C(F)(F)F)cc3Cl)c2)cc1C(=O)N(C)C1CC1 [I-T3-128] | – | 100 | – | 100 | 100 | – | – | 2.8 | –
17 | Cc1ncc(-c2cnn(-c3c(Cl)cc(C(F)(F)F)cc3Cl)c2)cc1C(=O)NC1(C#N)CC1 [I-T3-129] | – | 100 | – | 100 | 100 | 80 | – | 2.6 | –
18 | Cc1ncc(-c2cnn(-c3c(Cl)cc(C(F)(F)F)cc3Cl)c2)cc1C(=O)N(C)C1(C#N)CC1 [I-T3-132] | – | 100 | – | 100 | 100 | – | – | 2.9 | –
19 | CNc1ncc(-c2cnn(-c3c(Cl)cc(C(F)(C(F)(F)F)C(F)(F)F)cc3Cl)c2)cc1C(=O)NC1CC1 [I-T3-136] | 100 | 100 | – | 100 | 100 | 100 | – | 3.5 | –
20 | O=C(NC1CC1)c1cc(-c2cnn(-c3c(Cl)cc(C(F)(C(F)(F)F)C(F)(F)F)cc3Cl)c2)cnc1NC1CC1 [I-T3-137] | 80 | 100 | – | 100 | 100 | 100 | – | 3.4 | –
21 | CCN(C(=O)c1cc(-c2cnn(-c3c(Cl)cc(C(F)(F)F)cc3Cl)c2)cnc1Cl)C1CC1 [I-T3-145] | 100 | 100 | – | 100 | 100 | 90 | – | 3.8 | –
22 | Cc1cc(C(F)(C(F)(F)F)C(F)(F)F)cc(C)c1-c1cc(-c2ccc(Cl)c(C(=O)NCC(F)(F)F)c2)on1 [I-T22-3] | 100 | 100 | – | 100 | 100 | 100 | – | – | 5
23 | N#CC1(NC(=O)c2cc(-c3cc(-c4c(Cl)cc(C(F)(C(F)(F)F)C(F)(F)F)cc4Cl)on3)ccc2Cl)CC1 [I-T23-2] | 100 | 100 | – | 100 | 100 | 100 | – | – | 4.8
24 | Cc1cc(C(F)(C(F)(F)F)C(F)(F)F)cc(C)c1-n1ccc(-c2ccc(Cl)c(C(=O)NC3CC3)c2)c1 [I-T46-2] | 100 | 100 | – | 100 | 100 | – | – | – | 5.0
